Measurements published in ChEMBL document CHEMBL5143688, “A kind of HIV-1 protease inhibitors containing phenols with antiviral activity against DRV-resistant variants” (Bioorg Med Chem, 2022).

Tests used:
HIV1 protease = assay: Selectivity index, ratio of CC50 for HEK293T cells to IC50 for inhibition of HIV1 protease expressed in Escherichia coli; format: toxicity; settings: human, read-out: Ratio CC50/IC50
[1] = Cytotoxicity against HEK293T cells assessed as reduction in cell viability measured after 24 hrs by CCK8 assay; format: toxicity, cell-based, HEK-293T; settings: human
[2] = biological target: Human immunodeficiency virus type 1 protease (Human immunodeficiency virus 1, UniProt Q72874); assay: Inhibition of HIV1 protease expressed in Escherichia coli using Arg-Glu (EDANS)-Ser-Gln-Asn-Tyr-Pro-Ile-Val-Gln-Lys(DABCYL)-Arg as substrate preincubated for 20 to 30 mins followed by substrate addition and measured for 10 mins by FRET assay
[3] = system: Human immunodeficiency virus 1; assay: Antiviral activity against wild-type HIV1 NL4-3 VSV-G pseudotyped virus infected in human SUP-T1 cells assessed as inhibition of late stage viral production pretreated with viral infected SUP-T1 cells for 48 hrs followed by reinfection in TZM-bl cells by luciferase reporter gene assay; format: functional, organism-based; settings: Human immunodeficiency virus 1, NL4-3, SUP-T1
[4] = system: Human immunodeficiency virus 1; assay: Antiviral activity against HIV1 NL4-3 VSV-G pseudotyped virus infected in human SUP-T1 cells assessed as inhibition of early stage viral production at 10 uM measured after 48 hrs by luciferase assay relative to control; format: functional; settings: Human immunodeficiency virus 1, NL4-3, SUP-T1
[5] = Selectivity ratio of EC50 for antiviral activity against DRV-resistant HIV1 NL4-3 VSV-G pseudotyped virus infected in human SUP-T1 cells to EC50 for antiviral activity against wild-type HIV1 NL4-3 VSV-G pseudotyped virus infected in human SUP-T1 cells; format: functional, Human immunodeficiency virus 1
[6] = system: Human immunodeficiency virus 1; assay: Antiviral activity against HIV1 NL4-3 VSV-G pseudotyped virus infected in human SUP-T1 cells assessed as inhibition of late stage viral production at 10 uM pretreated for 48 hrs followed by viral infection and measured after 48 hrs by luciferase assay relative to control; format: functional; settings: Human immunodeficiency virus 1, NL4-3, SUP-T1, time 96 hrs
[7] = system: Human immunodeficiency virus 1; assay: Antiviral activity against DRV-resistant HIV1 NL4-3 VSV-G pseudotyped virus infected in human SUP-T1 cells assessed as inhibition of late stage viral production pretreated for 48 hrs followed by viral infection and measured after 48 hrs by luciferase assay; format: functional, organism-based; settings: Human immunodeficiency virus 1, NL4-3, SUP-T1
[8] = system: Human immunodeficiency virus 1; assay: Antiviral activity against HIV1 NL4-3 VSV-G pseudotyped virus infected in human SUP-T1 cells assessed as inhibition of late stage viral production at 100 nM pretreated for 48 hrs followed by viral infection and measured after 48 hrs by luciferase assay relative to control; format: functional; settings: Human immunodeficiency virus 1, NL4-3, SUP-T1, time 96 hrs

Compound: CC(C)CN(C[C@@H](O)[C@H](Cc1ccccc1)NC(=O)c1cc(O)c(O)c(O)c1)S(=O)(=O)c1ccc([N+](=O)[O-])cc1
- selectivity ratio (HIV1 protease): > 137000
- CC50 at 24 h [1]: > 100000 nM
- IC50 [2]: 0.73 nM

Compound: CC(C)CN(C[C@@H](O)[C@H](Cc1ccccc1)NC(=O)c1cc(O)cc(O)c1)S(=O)(=O)c1ccc(F)cc1
- selectivity ratio (HIV1 protease): > 4.76e+06
- CC50 at 24 h [1]: > 100000 nM
- EC50 [3]: 740 nM
- inhibition at 10 µM [4]: 2.6%
- Ratio EC50 [5]: 0.82
- inhibition at 10 µM [6]: 100%
- EC50 [7]: 610 nM
- IC50 [2]: 0.021 nM

Compound: CC(C)CN(C[C@@H](O)[C@H](Cc1ccccc1)NC(=O)c1ccc(Cl)cc1O)S(=O)(=O)c1ccc([N+](=O)[O-])cc1
- IC50 [2]: 9.99 nM

Compound: CC(C)CN(C[C@@H](O)[C@H](Cc1ccccc1)NC(=O)c1ccc(O)cc1O)S(=O)(=O)c1ccc(F)cc1
- selectivity ratio (HIV1 protease): > 159000
- CC50 at 24 h [1]: > 100000 nM
- inhibition at 10 µM [6]: 99.4%
- IC50 [2]: 0.63 nM

Compound: COc1cc(C(=O)N[C@@H](Cc2ccccc2)[C@H](O)CN(CC(C)C)S(=O)(=O)c2ccc(C(F)(F)F)cc2)cc(OC)c1O
- IC50 [2]: 8.27 nM

Compound: CC(C)CN(C[C@@H](O)[C@H](Cc1ccccc1)NC(=O)c1ccc(O)cc1O)S(=O)(=O)c1ccc([N+](=O)[O-])cc1
- selectivity ratio (HIV1 protease): > 41300
- CC50 at 24 h [1]: > 100000 nM
- IC50 [2]: 2.42 nM

Compound: COc1ccc(C(=O)N[C@@H](Cc2ccccc2)[C@H](O)CN(CC(C)C)S(=O)(=O)c2ccc(F)cc2)c(O)c1
- inhibition at 10 µM [6]: 82.2%
- IC50 [2]: 8.34 nM

Compound: CC(C)CN(C[C@@H](O)[C@H](Cc1ccccc1)NC(=O)c1ccc(O)c(O)c1)S(=O)(=O)c1ccc([N+](=O)[O-])cc1
- selectivity ratio (HIV1 protease): 142000
- CC50 at 24 h [1]: 35600 nM
- IC50 [2]: 0.25 nM

Compound: CC(C)CN(C[C@@H](O)[C@H](Cc1ccccc1)NC(=O)c1ccccc1O)S(=O)(=O)c1ccc(C(F)(F)F)cc1
- IC50 [2]: 23 nM

Compound: COc1ccc(C(=O)N[C@@H](Cc2ccccc2)[C@H](O)CN(CC(C)C)S(=O)(=O)c2ccc([N+](=O)[O-])cc2)c(O)c1
- IC50 [2]: 12.7 nM

Compound: COc1cc(C(=O)N[C@@H](Cc2ccccc2)[C@H](O)CN(CC(C)C)S(=O)(=O)c2ccc(F)cc2)cc(OC)c1O
- selectivity ratio (HIV1 protease): > 312000
- CC50 at 24 h [1]: > 100000 nM
- inhibition at 10 µM [6]: 84.2%
- IC50 [2]: 0.32 nM

Compound: CC(C)CN(C[C@@H](O)[C@H](Cc1ccccc1)NC(=O)c1cc(O)c(O)c(O)c1)S(=O)(=O)c1ccc(C(F)(F)F)cc1
- selectivity ratio (HIV1 protease): > 303000
- CC50 at 24 h [1]: > 100000 nM
- IC50 [2]: 0.33 nM

Compound: COc1cc(O)c(C(=O)N[C@@H](Cc2ccccc2)[C@H](O)CN(CC(C)C)S(=O)(=O)c2ccc([N+](=O)[O-])cc2)cc1OC
- IC50 [2]: 13.7 nM

Compound: CC(C)CN(C[C@@H](O)[C@H](Cc1ccccc1)NC(=O)c1ccc(Cl)cc1O)S(=O)(=O)c1ccc(C(F)(F)F)cc1
- IC50 [2]: 6.23 nM

Compound: CC(C)CN(C[C@@H](O)[C@H](Cc1ccccc1)NC(=O)c1ccccc1O)S(=O)(=O)c1ccc(F)cc1
- selectivity ratio (HIV1 protease): > 49000
- CC50 at 24 h [1]: > 100000 nM
- inhibition at 10 µM [6]: 92.6%
- IC50 [2]: 2.04 nM

Compound: CC(C)CN(C[C@@H](O)[C@H](Cc1ccccc1)NC(=O)c1ccc(O)cc1O)S(=O)(=O)c1ccc(C(F)(F)F)cc1
- IC50 [2]: 8.82 nM

Compound: COc1cc(O)c(C(=O)N[C@@H](Cc2ccccc2)[C@H](O)CN(CC(C)C)S(=O)(=O)c2ccc(F)cc2)cc1OC
- IC50 [2]: 11.5 nM

Compound: COc1cc(C(=O)N[C@@H](Cc2ccccc2)[C@H](O)CN(CC(C)C)S(=O)(=O)c2ccc([N+](=O)[O-])cc2)cc(OC)c1O
- selectivity ratio (HIV1 protease): > 127000
- CC50 at 24 h [1]: > 100000 nM
- IC50 [2]: 0.79 nM

Compound: CC(C)CN(C[C@@H](O)[C@H](Cc1ccccc1)NC(=O)c1ccc(Cl)cc1O)S(=O)(=O)c1ccc(F)cc1
- inhibition at 10 µM [6]: 97.4%
- IC50 [2]: 6.94 nM

Compound: CC(C)CN(C[C@@H](O)[C@H](Cc1ccccc1)NC(=O)O[C@H]1CO[C@H]2OCC[C@H]21)S(=O)(=O)c1ccc(N)cc1
- EC50 [3]: 2.5 nM
- inhibition at 0.1 µM [8]: 100%
- EC50 [7]: 100 nM

Compound: CC(C)CN(C[C@@H](O)[C@H](Cc1ccccc1)NC(=O)c1ccc(O)c(O)c1)S(=O)(=O)c1ccc(F)cc1
- selectivity ratio (HIV1 protease): 768000
- CC50 at 24 h [1]: 57600 nM
- EC50 [3]: 360 nM
- inhibition at 10 µM [4]: 12.5%
- Ratio EC50 [5]: 6.06
- inhibition at 10 µM [6]: 100%
- EC50 [7]: 2180 nM
- IC50 [2]: 0.075 nM

Compound: COc1ccc(C(=O)N[C@@H](Cc2ccccc2)[C@H](O)CN(CC(C)C)S(=O)(=O)c2ccc(C(F)(F)F)cc2)c(O)c1
- IC50 [2]: 16.2 nM

Compound: COc1cc(O)c(C(=O)N[C@@H](Cc2ccccc2)[C@H](O)CN(CC(C)C)S(=O)(=O)c2ccc(C(F)(F)F)cc2)cc1OC
- IC50 [2]: 11.4 nM

Compound: CC(C)CN(C[C@@H](O)[C@H](Cc1ccccc1)NC(=O)c1cc(O)cc(O)c1)S(=O)(=O)c1ccc(C(F)(F)F)cc1
- selectivity ratio (HIV1 protease): > 1.28e+06
- CC50 at 24 h [1]: > 100000 nM
- IC50 [2]: 0.078 nM

Compound: CC(C)CN(C[C@@H](O)[C@H](Cc1ccccc1)NC(=O)c1ccc(O)c(O)c1)S(=O)(=O)c1ccc(C(F)(F)F)cc1
- selectivity ratio (HIV1 protease): 496000
- CC50 at 24 h [1]: 38200 nM
- IC50 [2]: 0.077 nM

Compound: CC(C)CN(C[C@@H](O)[C@H](Cc1ccccc1)NC(=O)c1ccccc1O)S(=O)(=O)c1ccc([N+](=O)[O-])cc1
- IC50 [2]: 13.3 nM

Compound: CC(C)CN(C[C@@H](O)[C@H](Cc1ccccc1)NC(=O)c1cc(O)cc(O)c1)S(=O)(=O)c1ccc([N+](=O)[O-])cc1
- selectivity ratio (HIV1 protease): 1.34e+06
- CC50 at 24 h [1]: 86900 nM
- IC50 [2]: 0.065 nM
